In patent publication US12310947B2, “Methods and compositions for unsilencing imprinted genes” (priority 2019, dated 2025):
Entries after “also recorded” stand apart in the source; their conditions may differ.

Assays:
paternal Ube3a-YFP [1] = assay: Western blot of UBE3A-YFP protein (anti-GFP) in Ube3a^m+/pYFP cortical neurons; type: cell-based, mouse; details: Topotecan 0.3 μM, PHA533533 1.0 μM; for UBE3A-YFP protein from the paternal allele (western blot): 72 hr, Compound X 0.5 μM, Compound Y 0.5 μM, EPZ5676 3 μM, EPZ5676 1 μM with P5-A4 1 μM, analogues 1 μM; for unsilencing of paternal Ube3a-YFP with CDK2 knocked down: CDK2 shRNA knockdown; for unsilencing of paternal Ube3a-YFP with CDK5 knocked down: CDK5 shRNA knockdown
Procedure: Cultured cortical neurons were infected at DIV 3 and virus was removed the next day (DIV 4). Neurons were further cultured and treated at DIV 10 with vehicle (0.1% DMSO) or the indicated compounds. To perform western blot analysis, the cultured neurons from 6-well plates were harvested and total protein was extracted with protein extraction buffer 72 hr after drug treatment, Bradford assays were performed to measure protein concentration, and 30 μg of total protein was loaded for Bis-polyacrylamide gel electrophoresis (Bio-Rad). Electrophoresed proteins were transferred to nitrocellulose membrane (0.45 μm, Bio-Rad). Membranes were blocked with 5% non-fat milk in 1×TBS-T at room temperature for 30 min followed by overnight 4° C. incubation with primary antibodies [rabbit anti-GFP (1:1000, Novus Biologicals), rabbit anti-Ube3a (1:1000, Bethyl Lab), rabbit anti-H3K79Me2 (1:1000, Abcam), rabbit anti-H3K79Me3 (1:1000, Abcam), and mouse anti-β-actin (1:5000, Sigma)]. The next day, the immunoblot membranes were rinsed with 1×TBS-T three times and incubated with HPR-conjugated secondary antibodies for 1 hr at room temperature (goat anti-rabbit @ 1:1000 or goat anti-mouse @ 1:1000, Vector Labs). Following secondary antibody incubation, the membranes were rinsed (4-5 times) with 1×TBS-T at room temperature for 1 hr and ECL (Bio-Rad) was used to visualize detected proteins using an Amersham Imager 600 (AI600, GE Life Sciences).

DOT1L = assay: Western blot of H3K79 methylation (anti-H3K79me2, anti-H3K79me3) in cortical neurons; type: cell-based, mouse; details: PHA533533 1.0 μM, Compound X 0.5 μM, EPZ5676 3 μM
Description: shRNA knockdown and western blot analysis: Lentiviral shRNAs of Top1 (TRCN0000011884), CDK2 (TRCN0000023146), and CDK5 (TRCN0000009520) were generated using previously described techniques. Cultured cortical neurons were infected at DIV 3 and virus was removed the next day (DIV 4). Neurons were further cultured and treated at DIV 10 with vehicle (0.1% DMSO) or the indicated compounds. To perform western blot analysis, the cultured neurons from 6-well plates were harvested and total protein was extracted with protein extraction buffer 72 hr after drug treatment, Bradford assays were performed to measure protein concentration, and 30 μg of total protein was loaded for Bis-polyacrylamide gel electrophoresis (Bio-Rad). Electrophoresed proteins were transferred to nitrocellulose membrane (0.45 μm, Bio-Rad). Membranes were blocked with 5% non-fat milk in 1×TBS-T at room temperature for 30 min followed by overnight 4° C. incubation with primary antibodies [rabbit anti-GFP (1:1000, Novus Biologicals), rabbit anti-Ube3a (1:1000, Bethyl Lab), rabbit anti-H3K79Me2 (1:1000, Abcam), rabbit anti-H3K79Me3 (1:1000, Abcam), and mouse anti-β-actin (1:5000, Sigma)]. […] Following secondary antibody incubation, the membranes were rinsed (4-5 times) with 1×TBS-T at room temperature for 1 hr and ECL (Bio-Rad) was used to visualize detected proteins using an Amersham Imager 600 (AI600, GE Life Sciences).

paternal Ube3a-YFP [2] = assay: High-content imaging of paternal UBE3A-YFP in cultured cortical neurons (GFP antibody-enhanced fluorescence); type: cell-based, mouse; details: for percent of neurons expressing UBE3A-YFP above threshold: cultured mouse cortical neurons, 72 hr treatment, n=4, DMSO control 0.03±0.004%; for unsilencing of paternal Ube3a-YFP by imaging, in words: library screen at 1 μM or dose response, 72 hr
Procedure: (§1) Cell culture and drug treatment: Primary cortical neurons were isolated and cultured by following established protocol. Briefly, cortical neurons were isolated from embryos (E13.5-15.5) carrying paternal Ube3a-YFP (Ube3a^m+/pYFP) or maternal deletion of Ube3a (Ube3a^m−/p+). Isolated cortical neurons were plated onto 384-well plates coated with poly-D-lysine (2.0×10^4 cell/well) for high-content imaging analysis or 6-well plates coated with poly-D-lysine (1.0×10^6 cells/well) for molecular and biochemical assays (western blot analysis, quantitative RT-PCR, and shRNA knockdown). Cultured neurons were maintained for 7 days, replacing medium every 3-4 days. On day 7 (DIV 7), the indicated compounds were added at 0.3-1 μM to neurons for 72 hr to unsilence paternal Ube3a or Ube3a-YFP.
Fluorescence immunocytochemistry and high content imaging analysis: Fluorescent immunocytochemistry and high content imaging analysis were performed by following previously described protocols with slight modifications. After 72 hr drug treatment, the neurons were fixed with 4% paraformaldehyde in 1×PBS at room temperature for 10 min. After brief washing with 1×PBS three times, neurons were permeabilized with 1% Triton-X 100 in 1×PBS at room temperature for 15 min, followed by blocking with 5% normal goat serum in 0.1% Triton-X 100 in 1×PBS at room temperature. 60 min after blocking, neurons were incubated with primary antibody, rabbit anti-GFP (1:1000, Novus Biologicals), at 4° C. overnight. Neurons were then briefly washed with 1×PBS followed by incubation with secondary antibody, goat anti-rabbit Alexa Fluor 488 (1:500, Thermo Fisher/Invitrogen) and Hoechst 33342 (Thermo Fisher), at room temperature for 60 min. Following secondary antibody incubation, neurons were washed with 1×PBS and fluorescent images were acquired using a BD Pathway 855 bioimager. All acquired images were analyzed by CellProfiler.
Fluorescence immunocytochemistry and high content imaging analysis: After 72-hour drug treatment, the neurons were fixed with 4% paraformaldehyde in phosphate-buffered saline (PBS) at room temperature for 10 min. After brief washing with PBS three times, neurons were permeabilized with 1% Triton-X 100 in PBS at room temperature for 10 min, followed by blocking with 5% normal goat serum in 0.1% Triton-X 100 in 1×PBS at room temperature. 30 min after blocking, neurons were incubated with primary antibodies rabbit anti-GFP (1:1000, NB 600308, Novus Biologicals) and mouse anti-NeuN (1:500, MAB 377, Millipore) at 4° C. overnight. Neurons were then briefly washed with 1×PBS followed by incubation with secondary antibodies goat anti-rabbit Alexa Fluor 488 (1:500, A11008, Thermo Fisher/Invitrogen) and anti-mouse Alexa Fluor 568 (1:500, A21124, ThermoFisher/Invitrogen) together with DAPI (4′,6-diamidino-2-phenylindole) at room temperature for 60 min. Following secondary antibody incubation, neurons were washed with 1×PBS and fluorescent images were acquired using Nikon Ti2 eclipse fluorescent microscope (Nikon Instruments Inc., Melville, NY, USA). Antibody-enhanced UBE3A-YFP fluorescence intensities were determined from DAPI and NeuN double-positive individual neurons in drug-treated wells and normalized to neurons in untreated wells. All acquired images were analyzed by Nikon NIS-Elements software (Nikon Instruments Inc., Melville, NY, USA). Sigmoidal curve fitting for the dose response analysis was performed using GraphPad Prism software version 8.0 (GraphPad Software, La Jolla, CA, USA). The calculated EC50 values (potencies) and Y value top plateau (estimated efficacies) enables comparative analyses of the relative potency and efficacy of the identified compounds.

Snord116 = assay: Quantitative RT-PCR of Snord116 mRNA in cultured cortical neurons; type: cell-based, mouse; details: qPCR normalized to β-actin, after drug treatment
Procedure: as §1
(§2) Quantitative real-time PCR and topoisomerase-based DNA relaxation assay: Quantitative real-time PCR (qPCR) was performed using previously reported protocols. Briefly, total RNA was extracted from cultured cortical neurons carrying Ube3a^m+/pYFP after drug treatment using Direct-zol RNA kit (Zymo Research). cDNA pool was synthesized using 2 μg of total RNA and qScript cDNA Supermix (Quantabio). qPCR was performed using SsoAdvanced Universal SYBR green Supermix (Bio-rad). […] Relative quantity (RQ) was calculated after normalized ΔΔCt was calculated. […]

Top2a = target: T1, Top2a (Homo sapiens, UniProt P11388); assay: Topoisomerase-based DNA relaxation assay, Top2a (kDNA decatenation); type: biochemical; details: catenated versus decatenated kDNA on agarose gel
T1 construct: purchased TopoGEN
T1 sequence (P11388 whole entry): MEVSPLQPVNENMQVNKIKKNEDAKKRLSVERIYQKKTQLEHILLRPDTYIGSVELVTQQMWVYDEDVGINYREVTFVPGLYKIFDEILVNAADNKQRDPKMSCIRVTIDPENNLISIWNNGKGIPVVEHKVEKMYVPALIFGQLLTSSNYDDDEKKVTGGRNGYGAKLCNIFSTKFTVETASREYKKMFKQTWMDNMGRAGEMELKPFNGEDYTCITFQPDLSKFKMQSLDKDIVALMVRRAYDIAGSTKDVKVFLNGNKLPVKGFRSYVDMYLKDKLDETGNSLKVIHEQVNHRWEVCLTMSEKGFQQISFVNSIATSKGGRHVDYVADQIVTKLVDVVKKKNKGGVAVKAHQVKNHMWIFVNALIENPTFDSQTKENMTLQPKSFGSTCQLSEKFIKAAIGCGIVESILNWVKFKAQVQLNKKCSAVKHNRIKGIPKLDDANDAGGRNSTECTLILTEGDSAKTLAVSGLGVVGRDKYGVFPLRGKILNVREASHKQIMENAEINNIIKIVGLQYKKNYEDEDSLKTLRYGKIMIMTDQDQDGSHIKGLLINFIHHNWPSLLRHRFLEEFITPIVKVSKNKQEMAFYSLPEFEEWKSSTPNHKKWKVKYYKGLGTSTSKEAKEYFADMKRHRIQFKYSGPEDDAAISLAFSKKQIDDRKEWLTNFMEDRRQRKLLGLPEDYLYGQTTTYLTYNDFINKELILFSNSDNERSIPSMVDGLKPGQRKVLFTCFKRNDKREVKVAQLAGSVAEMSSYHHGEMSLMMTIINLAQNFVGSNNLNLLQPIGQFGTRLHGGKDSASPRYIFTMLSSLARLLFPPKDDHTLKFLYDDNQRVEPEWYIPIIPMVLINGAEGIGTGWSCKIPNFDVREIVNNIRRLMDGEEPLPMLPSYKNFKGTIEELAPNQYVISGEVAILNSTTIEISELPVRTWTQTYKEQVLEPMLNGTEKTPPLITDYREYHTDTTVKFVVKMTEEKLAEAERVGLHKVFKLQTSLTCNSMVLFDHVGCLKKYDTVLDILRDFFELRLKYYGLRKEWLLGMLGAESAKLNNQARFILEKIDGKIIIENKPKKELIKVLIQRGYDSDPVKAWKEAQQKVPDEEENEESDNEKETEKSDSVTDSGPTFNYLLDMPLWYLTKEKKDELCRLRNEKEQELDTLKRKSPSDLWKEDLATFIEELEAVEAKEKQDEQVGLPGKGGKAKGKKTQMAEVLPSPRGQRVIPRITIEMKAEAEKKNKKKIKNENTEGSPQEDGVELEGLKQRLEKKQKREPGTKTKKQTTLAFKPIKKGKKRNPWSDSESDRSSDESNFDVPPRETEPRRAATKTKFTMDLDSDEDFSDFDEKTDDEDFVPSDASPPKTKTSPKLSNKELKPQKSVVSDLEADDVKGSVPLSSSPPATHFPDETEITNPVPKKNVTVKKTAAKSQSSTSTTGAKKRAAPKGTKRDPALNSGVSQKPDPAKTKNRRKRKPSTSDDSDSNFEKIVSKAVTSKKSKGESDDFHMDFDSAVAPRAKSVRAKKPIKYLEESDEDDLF
Procedure: Quantitative real-time PCR and topoisomerase-based DNA relaxation assay: Quantitative real-time PCR (qPCR) was performed using previously reported protocols. Briefly, total RNA was extracted from cultured cortical neurons carrying Ube3a^m+/pYFP after drug treatment using Direct-zol RNA kit (Zymo Research). cDNA pool was synthesized using 2 μg of total RNA and qScript cDNA Supermix (Quantabio). qPCR was performed using SsoAdvanced Universal SYBR green Supermix (Bio-rad). The primer sets were β-actin (forward, 5′-[…]-3′, SEQ ID NO:1; reverse, 5′-[…]-3, SEQ ID NO:2), YFP (forward, 5′-[…]-3′, SEQ ID NO:3; reverse, 5′-[…]-3′, SEQ ID NO:4), Ube3a-ATS (forward, 5′-[…]-3′, SEQ ID NO:5; reverse, 5′-[…]-3′, SEQ ID NO:6), Snrpn (forward, 5′-[…]-3′, SEQ ID NO:7; reverse, 5′-[…]-3′, SEQ ID NO:8), and Snord116 (forward, 5′-[…]-3′, SEQ ID NO:9; reverse, 5′-[…]-3′, SEQ ID NO:10). qPCR was performed using QuantStudio thermocycler (Thermo Fisher) with the following conditions: 95° C. for 5 min and followed by 40 cycles of 95° C. 10 sec, 60° C. 1 min. Relative quantity (RQ) was calculated after normalized ΔΔCt was calculated. Topoisomerase (Top)-based DNA relaxation assays were performed to test whether the drugs inhibited Top1, Top2a, and Top2b. Top1 and Top2a assay kits were purchased from TopoGEN, and Top2b enzyme was purchased from Inspiralis. All Top-based assays followed manufacturer protocols.

Ube3a-ATS = assay: Quantitative RT-PCR of Ube3a-ATS mRNA in cultured cortical neurons; type: cell-based, mouse; details: qPCR normalized to β-actin, after drug treatment
Procedure: as §1, §2

paternal UBE3A = assay: Western blot of UBE3A protein (anti-Ube3a) in AS model (Ube3a^m-/p+) cortical neurons; type: cell-based, mouse; details: 72 hr; Topotecan 0.3 μM, PHA533533 1.0 μM, Compound X 0.5 μM, Compound Y 0.5 μM; versus DMSO-treated WT neurons
Procedure: as §1
shRNA knockdown and western blot analysis: Lentiviral shRNAs of Top1 (TRCN0000011884), CDK2 (TRCN0000023146), and CDK5 (TRCN0000009520) were generated using previously described techniques. Cultured cortical neurons were infected at DIV 3 and virus was removed the next day (DIV 4). […] Following secondary antibody incubation, the membranes were rinsed (4-5 times) with 1×TBS-T at room temperature for 1 hr and ECL (Bio-Rad) was used to visualize detected proteins using an Amersham Imager 600 (AI600, GE Life Sciences).

Ube3a-YFP mRNA = assay: Quantitative RT-PCR of Ube3a-YFP mRNA in cultured cortical neurons; type: cell-based, mouse; details: qPCR normalized to β-actin, after drug treatment
Procedure: as §1, §2

Snrpn = assay: Quantitative RT-PCR of Snrpn mRNA in cultured cortical neurons; type: cell-based, mouse; details: qPCR normalized to β-actin, after drug treatment
Procedure: as §1, §2

[3] = test system: cultured mouse cortical neurons; type: cell-based
Procedure: Cytotoxicity test: Cytotoxicity of drugs was tested in cultured mouse cortical neurons in vitro. The manufacturer's protocol was followed to measure luminescence proportional to the number of dead cells using Cyto Tox-Glo assay (Promega). 72 hr after drug treatment, AAF-Glo substrates were directed added to the drug-treated (or 0.1% DMSO vehicle-treated) cortical neurons and incubated them at room temperature for 15 min. Luminescence produced by dead-cell protease activity was then measured.

Compound | UBE3A-YFP protein from the paternal allele (western blot) (paternal Ube3a-YFP [1]) | methylation level on histone H3 lysine 79 (H3K79) (DOT1L) | percent of neurons expressing UBE3A-YFP above threshold (paternal Ube3a-YFP [2]) | unsilencing of paternal Ube3a-YFP by imaging, in words (paternal Ube3a-YFP [2]) | Snord116 mRNA (Snord116) | unsilencing of paternal Ube3a-YFP with CDK2 knocked down (paternal Ube3a-YFP [1]) | unsilencing of paternal Ube3a-YFP with CDK5 knocked down (paternal Ube3a-YFP [1]) | inhibition of Top2a (Top2a) | Ube3a-ATS mRNA (Ube3a-ATS) | UBE3A protein from the paternal allele in AS model neurons (western blot) (paternal UBE3A) | mRNA of Ube3a-YFP (Ube3a-YFP mRNA) | Snrpn mRNA (Snrpn) | further results
C[C@H](C(=O)Nc1cc(C2CC2)[nH]n1)c1ccc(N2CCOC2=O)cc1 [Compound P5-A4, (S)—N-(5-cyclopropyl-1H-pyrazol-3-yl)-2-(4-(2-oxooxazolidin-3-yl)phenyl)propenamide] | did not appreciably unsilence paternal Ube3a-YFP |  |  |  |  |  |  |  |  |  |  |  | 
CC(C)N(C[C@H]1O[C@@H](n2cnc3c(N)ncnc32)[C@H](O)[C@@H]1O)[C@H]1C[C@@H](CCc2nc3cc(C(C)(C)C)ccc3[nH]2)C1 [EPZ5676, reference compound] | did not appreciably unsilence paternal Ube3a-YFP | reduced methylation level on histone H3 lysine 79 (H3K79) |  |  |  |  |  |  |  |  |  |  | 
C[C@H](C(=O)Nc1cc(C2CC2)[nH]n1)c1ccc(N2CCCC2=O)cc1 [PHA533533] | increased UBE3A-YFP protein to levels approaching that of topotecan; also recorded: can produce UBE3A-YFP | reduced methylation level on histone H3 lysine 79 (H3K79) | 63.7±14.3% | effectively unsilenced paternal Ube3a-YFP; also recorded: can unsilence paternal Ube3a-YFP | decreased | did not unsilence paternal Ube3a-YFP unless neurons were treated | further enhanced | partially inhibited Top2a | significantly decreased; also recorded: downregulates Ube3a-ATS | unsilenced paternal UBE3A at levels that approached that of UBE3A levels in DMSO-treated neurons from WT mice | upregulated | decreased | potency (EC50) compared to topotecan, in words (paternal Ube3a-YFP [2]; dose response, normalized fluorescent intensity): slightly lower potency than topotecan
O=C(Cc1ccc2ccccc2c1)Nc1cc(C2CC2)[nH]n1 [PNU0292137] |  |  |  | could not produce appreciable increases |  |  |  |  |  |  |  |  | 
CC[C@@]1(O)C(=O)OCc2c1cc1n(c2=O)Cc2cc3c(CN(C)C)c(O)ccc3nc2-1 [topotecan, reference compound] |  |  | 37.3±3.7% | unsilenced paternal UBE3A-YFP | decreased | did not unsilence paternal Ube3a-YFP unless neurons were treated | further enhanced |  | significantly decreased | unsilenced paternal UBE3A at levels that approached that of UBE3A levels in DMSO-treated neurons from WT mice | upregulated | decreased | unsilencing of paternal Ube3a-YFP with Top1 knocked down (paternal Ube3a-YFP [1]; Top1 shRNA knockdown): occlude unsilencing; also recorded: occluded the ability; LC50 / cytotoxicity compared to topotecan, in words [3]: comparable LC50
ICRF-193 [reference compound] |  |  |  |  |  |  |  | inhibits the relaxation of catenated kDNA |  |  |  |  | 
